From ChEMBL document CHEMBL3352459, “Synthesis and evaluation of N-acyl-substituted 1,2-benzisothiazol-3-one derivatives as caspase-3 inhibitors” (Bioorg Med Chem, 2014)
Residues, ends and D or L forms follow the SMILES beside them. *: point of attachment. Cbz = O=C(OCc1ccccc1)*; CH2F = FC*

Experiments:
Caspase-3 = biological target: T1, Caspase-3 (Homo sapiens, UniProt P42574); test: Inhibition of recombinant human caspase-3 activity using Ac-DEVD-AMC as substrate preincubated for 10 mins by fluorescence assay
T1 sequence (P42574 whole entry): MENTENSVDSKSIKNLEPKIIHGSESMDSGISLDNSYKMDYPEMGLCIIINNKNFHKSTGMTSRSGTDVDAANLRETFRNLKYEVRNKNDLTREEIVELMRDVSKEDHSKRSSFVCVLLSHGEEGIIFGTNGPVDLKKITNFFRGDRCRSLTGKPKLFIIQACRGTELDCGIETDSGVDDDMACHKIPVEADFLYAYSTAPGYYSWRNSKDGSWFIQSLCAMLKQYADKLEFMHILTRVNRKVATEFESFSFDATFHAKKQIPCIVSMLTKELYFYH

Caspase-7 = biological target: T2, Caspase-7 (Homo sapiens, UniProt P55210); test: Inhibition of recombinant human caspase-7 activity using Ac-DEVD-AMC as substrate preincubated for 10 mins by fluorescence assay
T2 sequence (P55210 whole entry): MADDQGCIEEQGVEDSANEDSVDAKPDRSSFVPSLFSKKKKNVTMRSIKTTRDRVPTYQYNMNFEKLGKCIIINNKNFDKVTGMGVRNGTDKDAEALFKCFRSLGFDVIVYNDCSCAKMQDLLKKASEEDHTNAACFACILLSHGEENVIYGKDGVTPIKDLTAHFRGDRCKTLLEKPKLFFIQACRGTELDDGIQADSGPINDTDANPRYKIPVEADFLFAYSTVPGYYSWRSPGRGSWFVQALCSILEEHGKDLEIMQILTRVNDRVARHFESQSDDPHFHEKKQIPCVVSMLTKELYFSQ

Jurkat [1] = test: Antiapoptotic activity in camptothecin-induced human Jurkat cells assessed as apoptotic cells at 10 uM after 2 hrs using Annexin V-FITC and 7-AAD by flow cytometry relative to control; type: functional
Jurkat [2] = test: Antiapoptotic activity in camptothecin-induced human Jurkat cells assessed as apoptotic cells at 50 uM after 2 hrs using Annexin V-FITC and 7-AAD by flow cytometry relative to control; type: functional

Structure (SMILES)	IC50 (Caspase-3) [nM]	IC50 (Caspase-7) [nM]	Activity (Jurkat [1]) [%]	Activity (Jurkat [2]) [%]
O=C(Nc1ccc(N2CCOCC2)cc1)n1sc2ccccc2c1=O	106	164	–	–
O=C(Cc1ccccc1)n1sc2ccccc2c1=O	292	269	–	–
Cc1ccccc1CC(=O)n1sc2ccccc2c1=O	200	370	–	–
Cc1cccc(CC(=O)n2sc3ccccc3c2=O)c1	339	184	–	–
Cc1ccc(CC(=O)n2sc3ccccc3c2=O)cc1	214	182	–	–
COc1ccccc1CC(=O)n1sc2ccccc2c1=O	219	207	–	–
COc1cccc(CC(=O)n2sc3ccccc3c2=O)c1	548	211	–	–
COc1ccc(CC(=O)n2sc3ccccc3c2=O)cc1	1340	213	–	–
O=C(Cc1ccccc1F)n1sc2ccccc2c1=O	186	123	–	–
O=C(Cc1cccc(F)c1)n1sc2ccccc2c1=O	899	458	–	–
O=C(Cc1ccc(F)cc1)n1sc2ccccc2c1=O	1200	608	–	–
O=C(Cc1ccccc1Cl)n1sc2ccccc2c1=O	193	145	–	–
O=C(Cc1cccc(Cl)c1)n1sc2ccccc2c1=O	272	607	–	–
O=C(Cc1ccc(Cl)cc1)n1sc2ccccc2c1=O	215	586	–	–
O=C(Cc1ccc(O)cc1)n1sc2ccccc2c1=O	326	330	–	–
O=C(Cc1ccc(Cl)c(Cl)c1)n1sc2ccccc2c1=O	654	198	–	–
O=C(CCc1ccccc1)n1sc2ccccc2c1=O	108	112	–	–
Cc1cccc(CCC(=O)n2sc3ccccc3c2=O)c1	95	109	–	–
Cc1ccc(CCC(=O)n2sc3ccccc3c2=O)cc1	119	72.5	–	–
COc1ccccc1CCC(=O)n1sc2ccccc2c1=O	137	63.7	–	–

Structure (SMILES)	IC50 (Caspase-3) [nM]	IC50 (Caspase-7) [nM]	Activity (Jurkat [1]) [%]	Activity (Jurkat [2]) [%]
COc1cccc(CCC(=O)n2sc3ccccc3c2=O)c1	34.9	54	36.6	100
COc1ccc(CCC(=O)n2sc3ccccc3c2=O)cc1	49.7	51.9	37.5	100
O=C(CCc1ccccc1F)n1sc2ccccc2c1=O	130	86.9	–	–
O=C(CCc1cccc(F)c1)n1sc2ccccc2c1=O	87.7	78.4	–	–
O=C(CCc1ccc(F)cc1)n1sc2ccccc2c1=O	112	59.7	–	–
O=C(CCc1ccccc1Cl)n1sc2ccccc2c1=O	47.3	158	–	–
O=C(CCc1ccc(Cl)cc1)n1sc2ccccc2c1=O	56.9	72.7	–	–
O=C(CCCc1ccccc1)n1sc2ccccc2c1=O	182	166	–	–
Cc1ccc(CCCC(=O)n2sc3ccccc3c2=O)cc1	266	97.9	–	–
COc1ccc(CCCC(=O)n2sc3ccccc3c2=O)cc1	390	74.9	–	–
O=C(CCCCc1ccccc1)n1sc2ccccc2c1=O	306	101	–	–
O=C(Cc1cccs1)n1sc2ccccc2c1=O	32200	18100	–	–
O=C(CCC(=O)n1sc2ccccc2c1=O)c1cccs1	235	56.7	–	–
O=C(CCCc1cccs1)n1sc2ccccc2c1=O	127	115	–	–
O=C(Cc1ccc(-c2ccccc2)cc1)n1sc2ccccc2c1=O	141	115	–	–
O=C(Cc1ccc2ccccc2c1)n1sc2ccccc2c1=O	265	297	–	–
O=C(Cc1ccc2c(c1)CCO2)n1sc2ccccc2c1=O	222	185	–	–
CC(=O)N[C@@H](CC(=O)O)C(=O)N[C@@H](CCC(=O)O)C(=O)N[C@H](C(=O)N[C@H](C=O)CC(=O)O)C(C)C	–	155	–	–
COC(=O)C[C@H](NC(=O)[C@H](C)NC(=O)[C@@H](NC(=O)OCc1ccccc1)C(C)C)C(=O)CF (Cbz-Val-Ala-Asp(OMe)-CH2F)	–	–	40.2	–
